Molecules are shown by their SMILES. Read-outs that look alike come from different tables or passages of the source.

For data set [1] the following is noted: cited from earlier work.
For data set [2] the following is noted: aqueous.
In another data set the test system is beagle dogs. The experiment in a line: Cardiovascular and respiratory effects following intravenous administration in anaesthetised beagle dogs. It is filed as in vivo, beagle dog. The procedure: The following parameters were recorded or derived and served as indicators of the functional status of the various elements within the cardiovascular and respiratory systems. The units of measurement are stated in parenthesis.
Anaesthesia was induced by i.v. injection of sodium thiopentone and maintained i.v. by a mixture of α-chloralose and pentobarbitone sodium given as required. Body temperature was maintained.
The trachea was cannulated and the canule connected to a pneumotach screen to allow measurement of tidal volume (ml) and the derived parameters of respiration rate (br/min) and minute volume (ml). Catheters were introduced into the right femoral artery and a cephalic vein to facilitate measurements of blood pressure and the administration of vehicle, test substances and anaesthetic respectively. The femoral artery was connected to a heparin/saline filled pressure transducer, coupled to a Grass 7E polygraph. […]
Following a 30 minute stabilization period, the vehicle was administered i.v. at a dose volume of 7.0 ml/kG over a period of 15 minutes. […] The parameters were monitored for a least 45 minutes from the start of infusion. […]
All parameters including high resolution (50 mm/sec) recordings of the ECG were measured at 5 minute intervals during the stabilization period and at 0.5, 1, 2 and 5 minutes intervals post-dose following vehicle and drug administration. […]

For `CC(=O)O[C@H]1C(=O)[C@@]2(C)[C@H]([C@H](OC(=O)c3ccccc3)[C@]3(O)C[C@H](OC(=O)[C@H](O)[C@@H](NC(=O)c4ccccc4)c4ccccc4)C(C)=C1C3(C)C)[C@]1(OC(C)=O)CO[C@@H]1C[C@@H]2O` [paclitaxel], the aqueous solubility result is on record as “about 0.0005 mg/ml” in data set [1] (ambient temperature) and “about 0.5 μg/ml” in data set [1] (room temperature). In addition, the “Dissolved Paclitaxel” value in data set [2] (2% w/v acetyl-γ-cyclodextrin) was 4.0 µg/mL; in data set [2] (5% w/v acetyl-γ-cyclodextrin) it was 8.8 µg/mL; in data set [2] (10% w/v acetyl-γ-cyclodextrin), 25.0 µg/mL; in data set [2] (20% w/v acetyl-γ-cyclodextrin), 48.0 µg/mL; in data set [2] (40% w/v acetyl-γ-cyclodextrin), 170 µg/mL; in data set [2] (40% w/v acetyl-γ-cyclodextrin, listed as Paclitaxel), 170.0 µg/mL. Besides, the “outcome of i.v. administration” value in the data set with beagle dogs (6 and 60 mg/m^2 in Cremophor ELP:ethanol 1:1, i.v., animals 1 and 2, administration discontinued) is “death of the animals”. For the same compound, the “reaction to intravenous administration” value with beagle dogs (dog, in vivo, iv) is “anaphylactic type reaction”.
